Results taken from patent publication US11220508B2, “TYK2 inhibitors and uses thereof” (Nimbus Lakshmi, Inc., priority 2016, dated 2022).

Legend:
[1] = target: TYK2 JH1 kinase function (Homo sapiens (Human), UniProt P29597); experiment: Tyk2 radioactive kinase assay; assay type: biochemical; conditions: active kinase assay, ATP at 10 μM
Method: (§1) Peptide substrate, [KKSRGDYMTMQIG], (20 μM) is prepared in reaction buffer (20 mM Hepes pH 7.5, 10 mM MgCl2, 1 mM EGTA, 0.02% Brij35, 0.02 mg/mL BSA, 0.1 mM […], 2 mM DTT, 1% DMSO. TYK2 (Invitrogen) kinase is added, followed by compounds in DMSO. 33PATP is added to initiate the reaction in ATP at 10 μM. Kinase reaction is incubated for 120 min at room temp and reactions are spotted onto P81 ion exchange paper (Whatman #3698-915), and then washed extensively in 0.75% phosphoric acid, prior to reading the radioactivity counts. For JAK2 (Invitrogen) kinase assay the peptide substrate poly[Glu:Tyr] (4:1), 0.2 mg/ml is used, in the reaction carried out the same as for TYK2.

[2] = target: human TYK2 (JH2domain-pseudokinase) (Homo sapiens (Human), UniProt P29597); experiment: TYK2 JH2 domain binding assay (KINOMEscan, DiscoveRx); conditions: Table 4, JH2 binding assay
Chain of human TYK2 (JH2domain-pseudokinase) (P29597 556-888): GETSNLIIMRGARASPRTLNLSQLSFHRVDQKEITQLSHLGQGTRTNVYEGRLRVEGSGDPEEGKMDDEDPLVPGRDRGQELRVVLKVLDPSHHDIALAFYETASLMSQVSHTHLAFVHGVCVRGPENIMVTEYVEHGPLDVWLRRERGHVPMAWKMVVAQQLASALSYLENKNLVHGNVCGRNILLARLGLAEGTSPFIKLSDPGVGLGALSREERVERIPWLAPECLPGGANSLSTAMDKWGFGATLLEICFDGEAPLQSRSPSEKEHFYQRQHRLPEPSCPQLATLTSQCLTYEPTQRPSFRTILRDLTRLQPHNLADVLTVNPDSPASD

[3] = target: JAK2 JH1 kinase function (Homo sapiens (Human), UniProt O60674); experiment: JAK2 radioactive kinase assay; assay type: biochemical; conditions: active kinase assay, ATP at 10 μM
Chain of JAK2 JH1 kinase function (O60674 whole entry): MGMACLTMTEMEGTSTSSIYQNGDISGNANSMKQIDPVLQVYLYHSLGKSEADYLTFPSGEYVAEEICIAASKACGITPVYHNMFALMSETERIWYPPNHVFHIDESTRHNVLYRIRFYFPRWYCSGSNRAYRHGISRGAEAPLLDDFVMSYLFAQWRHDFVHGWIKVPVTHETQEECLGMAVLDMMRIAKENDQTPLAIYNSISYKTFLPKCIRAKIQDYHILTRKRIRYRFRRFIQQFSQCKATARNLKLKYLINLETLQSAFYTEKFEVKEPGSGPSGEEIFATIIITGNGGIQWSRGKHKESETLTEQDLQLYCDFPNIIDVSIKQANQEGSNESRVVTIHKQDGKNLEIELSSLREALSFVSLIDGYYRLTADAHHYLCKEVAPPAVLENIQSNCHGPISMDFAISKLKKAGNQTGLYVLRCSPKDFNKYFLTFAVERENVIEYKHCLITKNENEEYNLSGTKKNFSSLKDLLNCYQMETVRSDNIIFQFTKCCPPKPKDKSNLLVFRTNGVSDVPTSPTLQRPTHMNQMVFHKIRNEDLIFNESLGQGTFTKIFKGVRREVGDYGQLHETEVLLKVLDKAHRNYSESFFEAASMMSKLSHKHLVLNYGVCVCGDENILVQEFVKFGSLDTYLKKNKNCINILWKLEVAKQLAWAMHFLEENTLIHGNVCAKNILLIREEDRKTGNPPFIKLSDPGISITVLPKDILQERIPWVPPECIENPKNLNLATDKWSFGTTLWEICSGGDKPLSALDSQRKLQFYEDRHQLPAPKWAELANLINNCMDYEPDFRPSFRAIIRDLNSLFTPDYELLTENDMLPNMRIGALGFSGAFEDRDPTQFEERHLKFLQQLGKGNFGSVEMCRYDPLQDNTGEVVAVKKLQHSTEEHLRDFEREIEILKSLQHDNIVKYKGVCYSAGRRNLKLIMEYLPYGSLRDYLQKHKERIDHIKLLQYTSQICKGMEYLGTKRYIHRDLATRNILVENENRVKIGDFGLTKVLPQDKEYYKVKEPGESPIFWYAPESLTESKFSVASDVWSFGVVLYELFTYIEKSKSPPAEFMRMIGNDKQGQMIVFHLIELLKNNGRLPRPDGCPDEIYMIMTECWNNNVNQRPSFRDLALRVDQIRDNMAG
Method: as §1

Chain of TYK2 JH1 kinase function (P29597 whole entry): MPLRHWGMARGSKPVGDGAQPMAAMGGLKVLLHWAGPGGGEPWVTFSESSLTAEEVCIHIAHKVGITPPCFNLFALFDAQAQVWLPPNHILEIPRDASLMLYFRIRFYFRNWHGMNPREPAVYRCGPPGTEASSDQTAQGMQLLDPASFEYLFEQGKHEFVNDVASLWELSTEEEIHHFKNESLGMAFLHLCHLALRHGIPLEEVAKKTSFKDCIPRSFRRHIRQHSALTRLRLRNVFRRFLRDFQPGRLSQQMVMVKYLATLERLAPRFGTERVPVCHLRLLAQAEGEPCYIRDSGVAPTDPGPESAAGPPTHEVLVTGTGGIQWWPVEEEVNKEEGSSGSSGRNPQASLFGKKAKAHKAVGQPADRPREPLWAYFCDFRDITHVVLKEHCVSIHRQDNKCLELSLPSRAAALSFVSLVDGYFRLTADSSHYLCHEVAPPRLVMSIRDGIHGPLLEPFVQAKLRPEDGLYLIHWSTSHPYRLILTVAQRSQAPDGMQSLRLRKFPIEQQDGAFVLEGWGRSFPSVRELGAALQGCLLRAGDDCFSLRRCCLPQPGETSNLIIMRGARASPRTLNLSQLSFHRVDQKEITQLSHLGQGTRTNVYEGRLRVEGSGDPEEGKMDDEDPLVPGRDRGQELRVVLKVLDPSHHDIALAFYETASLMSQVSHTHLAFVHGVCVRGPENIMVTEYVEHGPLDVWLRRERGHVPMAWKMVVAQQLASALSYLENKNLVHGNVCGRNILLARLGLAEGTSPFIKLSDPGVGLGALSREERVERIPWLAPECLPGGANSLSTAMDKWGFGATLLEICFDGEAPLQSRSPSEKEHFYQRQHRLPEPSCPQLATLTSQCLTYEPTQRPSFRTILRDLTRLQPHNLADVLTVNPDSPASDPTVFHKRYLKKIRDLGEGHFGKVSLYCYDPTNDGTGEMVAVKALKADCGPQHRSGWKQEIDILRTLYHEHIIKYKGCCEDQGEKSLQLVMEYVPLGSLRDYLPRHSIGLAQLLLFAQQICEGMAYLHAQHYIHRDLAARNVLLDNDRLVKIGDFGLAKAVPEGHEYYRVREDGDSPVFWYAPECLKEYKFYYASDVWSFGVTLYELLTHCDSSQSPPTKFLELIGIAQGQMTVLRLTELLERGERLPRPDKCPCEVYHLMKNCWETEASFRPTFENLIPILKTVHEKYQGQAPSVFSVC

Row | inhibitory activity against TYK2 JH1 kinase function [1] | Kd [2] [nM] | inhibitory activity against JAK2 JH1 kinase function [3] | Structure (SMILES)
1 | no detectable inhibitory activity | – | no detectable inhibitory activity | COc1c(Nc2cc(NC(=O)C3CC3)ncc2-c2ncc(Cl)s2)cccc1-c1nnn(C)n1 [VIII-1, N-(5-(5-chlorothiazol-2-yl)-4-((2-methoxy-3-(2-methyl-2H-tetrazol-5-yl)phenyl)amino)pyridin-2-yl)cyclopropanecarboxamide]
2 | no detectable inhibitory activity | – | no detectable inhibitory activity | COc1c(Nc2cc(NC(=O)C3CC3)ncc2-c2ncc(F)s2)cccc1-c1nnn(C)n1 [VIII-2, N-(5-(5-fluorothiazol-2-yl)-4-((2-methoxy-3-(2-methyl-2H-tetrazol-5-yl)phenyl)amino)pyridin-2-yl)cyclopropanecarboxamide]
3 | no detectable inhibitory activity | – | no detectable inhibitory activity | COc1c(Nc2cc(NC(=O)C3CC3)ncc2-c2nnc(C(F)(F)F)o2)cccc1-c1ncn(C)n1 [VIII-3, N-(4-((2-methoxy-3-(1-methyl-1H-1,2,4-triazol-3-yl)phenyl)amino)-5-(5-(trifluoromethyl)-1,3,4-oxadiazol-2-yl)pyridin-2-yl)cyclopropanecarboxamide]
4 | no detectable inhibitory activity | – | no detectable inhibitory activity | COC(=O)c1nnc(-c2cnc(NC(=O)C3CC3)cc2Nc2cccc(-c3ncn(C)n3)c2OC)o1 [VIII-4, methyl 5-(6-(cyclopropanecarboxamido)-4-((2-methoxy-3-(1-methyl-1H-1,2,4-triazol-3-yl)phenyl)amino)pyridin-3-yl)-1,3,4-oxadiazole-2-carboxylate]

Further lines, the molecule ahead of its results:

Row | Structure (SMILES) | inhibitory activity against TYK2 JH1 kinase function [1] | Kd [2] [nM] | inhibitory activity against JAK2 JH1 kinase function [3]
5 | COc1c(Nc2cc(NC(=O)C3CC3)nc3[nH]n(C)c(=O)c23)cccc1-c1nnn(C)n1 [Compound I-1, N-(4-((2-methoxy-3-(2-methyl-2H-tetrazol-5-yl)phenyl)amino)-2-methyl-3-oxo-2,3-dihydro-1H-pyrazolo[3,4-b]pyridin-6-yl)cyclopropanecarboxamide] | no detectable inhibitory activity | – | –
6 | COCc1ccnc(Nc2cc(Nc3cccc(-c4nnn(C)n4)c3OC)c3c(=O)n(C)[nH]c3n2)c1 [Compound I-2, 4-((2-methoxy-3-(2-methyl-2H-tetrazol-5-yl)phenyl)amino)-6-((4-(methoxymethyl)pyridin-2-yl)amino)-2-methyl-1,2-dihydro-3H-pyrazolo[3,4-b]pyridin-3-one] | no detectable inhibitory activity | – | –
7 | COc1c(Cl)cccc1Nc1cc(Nc2cccc(N3CC(OC)C3)n2)nc2[nH]n(C)c(=O)c12 [Compound I-116, 4-((3-chloro-2-methoxyphenyl)amino)-6-((6-(3-methoxyazetidin-1-yl)pyridin-2-yl)amino)-2-methyl-1,2-dihydro-3H-pyrazolo[3,4-b]pyridin-3-one] | – | > 10 | –
